Assay results as given in ChEMBL document CHEMBL1201862, “PubChem BioAssay data set” (2004).
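Exposure lasted 48 hours, with cells grown in 96-well plates and compounds tested at five concentrations. GI50 is the concentration that inhibits growth by half.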 The source made the active and inactive calls. Cut-off read from the data, not from the text of the source: active = GI50 up to about 1.1 µM and inactive = higher.

How the values were obtained:
Test in all cases: DTP human tumour cell line panel, 48 h
SN12C = tested on: SN12C
ACHN = tested on: ACHN
SK-MEL-28 = tested on: SK-MEL-28
LXFL 529 = tested on: LXFL 529
COLO 205 = tested on: COLO 205
UACC-62 = tested on: UACC-62
NCI-H460 = tested on: NCI-H460
DMS-273 = tested on: DMS-273
A498 = tested on: A498
NCI-H226 = tested on: NCI-H226
UACC-257 = tested on: UACC-257
UO-31 = tested on: UO-31
HCT-116 = tested on: HCT-116
CAKI-1 = tested on: CAKI-1
HOP-92 = tested on: HOP-92
MOLT-4 = tested on: MOLT-4

Row | Compound | GI50 (SN12C) | GI50 (ACHN) | GI50 (SK-MEL-28) | GI50 (LXFL 529) | GI50 (COLO 205) | GI50 (UACC-62) | GI50 (NCI-H460) | GI50 (DMS-273) | GI50 (A498) | GI50 (NCI-H226) | GI50 (UACC-257) | GI50 (UO-31) | GI50 (HCT-116) | GI50 (CAKI-1) | GI50 (HOP-92) | GI50 (MOLT-4)
1 | C/C(=C1/N=C(c2cc([N+](=O)[O-])ccc2Cl)N(c2ccc(Br)cc2)C1=O)c1ccc(N(CCC#N)CCC#N)cc1C | 40.4 µM (inactive) | 31.5 µM (inactive) | 49.5 µM (inactive) | 8.11 µM (inactive) | 32.2 µM (inactive) | 3.61 µM (inactive) | 25.1 µM (inactive) | 7.23 µM (inactive) | 25.7 µM (inactive) | > 100 µM (inactive) | 57.5 µM (inactive) | 24.7 µM (inactive) | 15.6 µM (inactive) | 52.4 µM (inactive) | 36.4 µM (inactive) | 9.62 µM (inactive)
2 | CCCCCCN(N)C(=O)CC#N | > 100 µM (inactive) | 95.5 µM (inactive) | > 100 µM (inactive) | > 100 µM (inactive) | 96.2 µM (inactive) | 60.4 µM (inactive) | > 100 µM (inactive) | > 100 µM (inactive) | > 100 µM (inactive) | > 100 µM (inactive) | > 100 µM (inactive) | > 100 µM (inactive) | 47.6 µM (inactive) | > 100 µM (inactive) | 53 µM (inactive) | 35.5 µM (inactive)
3 | N#Cc1c(-c2ccc(Cl)c(Cl)c2)c(-c2ccc(Cl)c(Cl)c2)nn(CC(=O)O)c1=O | 51.3 µM (inactive) | 61.5 µM (inactive) | 75.2 µM (inactive) | 72.4 µM (inactive) | 71.4 µM (inactive) | > 100 µM (inactive) | 36.9 µM (inactive) | 44.7 µM (inactive) |  | 24 µM (inactive) | 66.2 µM (inactive) | 57.8 µM (inactive) | 41.5 µM (inactive) | 38.5 µM (inactive) | > 100 µM (inactive) | 68.4 µM (inactive)
4 | Cc1c(C(=O)CC(=O)C(=O)Nc2ccc(Cl)c(Cl)c2)[n+]([O-])c2ccccc2[n+]1[O-] | 23.8 µM (inactive) | 20.3 µM (inactive) | 37.9 µM (inactive) | 16.3 µM (inactive) | 19.4 µM (inactive) | 17.3 µM (inactive) | 24.7 µM (inactive) | 26 µM (inactive) | > 100 µM (inactive) | > 100 µM (inactive) | 17.5 µM (inactive) | 55.1 µM (inactive) | 19 µM (inactive) | 51.9 µM (inactive) | 27.5 µM (inactive) | 20.8 µM (inactive)
5 | N#C/C(=C\c1c(O)cc(O)cc1O)C(N)=O | > 100 µM (inactive) | > 100 µM (inactive) | > 100 µM (inactive) | > 100 µM (inactive) | > 100 µM (inactive) |  | > 100 µM (inactive) | > 100 µM (inactive) | > 100 µM (inactive) | > 100 µM (inactive) | > 100 µM (inactive) | > 100 µM (inactive) | > 100 µM (inactive) | > 100 µM (inactive) | > 100 µM (inactive) | > 100 µM (inactive)
6 | Cc1cc(Cl)ccc1NC(=O)/C(=N\NC(C)(C)C)C(C#N)c1nc(-c2ccc([N+](=O)[O-])cc2)cs1 (stereo unspecified) | > 100 µM (inactive) | > 100 µM (inactive) | > 100 µM (inactive) | > 100 µM (inactive) |  | > 100 µM (inactive) | > 100 µM (inactive) | > 100 µM (inactive) | > 100 µM (inactive) | > 100 µM (inactive) | > 100 µM (inactive) | > 100 µM (inactive) | > 100 µM (inactive) | > 100 µM (inactive) | > 100 µM (inactive) | 5.79 µM (inactive)
7 | O=c1c(-c2cccc3ccccc23)c(-c2cccc3ccccc23)c1=O | 5.06 µM (inactive) | 0.716 µM (active) | 10.6 µM (inactive) | 3.05 µM (inactive) | 0.363 µM (active) | 1.04 µM (active) | 0.586 µM (active) | 1.71 µM (inactive) | 2.45 µM (inactive) | 2.32 µM (inactive) | 4.25 µM (inactive) | 11.8 µM (inactive) | 1.85 µM (inactive) | 2.91 µM (inactive) | 0.948 µM (active) | 1.59 µM (inactive)
8 | COC(=O)CC(NC(=O)OCc1ccccc1)C(C(=O)OCc1ccccc1)C1(C)OCCO1 (stereo unspecified) | 47.4 µM (inactive) | 34.9 µM (inactive) | 66.5 µM (inactive) | 18.8 µM (inactive) | 18.6 µM (inactive) | 18.7 µM (inactive) | 34.7 µM (inactive) | 39.5 µM (inactive) | 18.2 µM (inactive) | 22.5 µM (inactive) | 30.4 µM (inactive) | 18.2 µM (inactive) | 40.4 µM (inactive) |  |  | 20.5 µM (inactive)
9 | CC1(O)C(C)(O)C2(C)O[Te]3(OC12C)OC1(C)C(C)(O)C(C)(O)C1(C)O3 (stereo unspecified) | 23.1 µM (inactive) | 31.3 µM (inactive) | 16.2 µM (inactive) | 16 µM (inactive) | > 100 µM (inactive) | 35.6 µM (inactive) | 3.32 µM (inactive) | 19.3 µM (inactive) | > 10 µM (inactive) | 29.4 µM (inactive) | > 100 µM (inactive) | 27.5 µM (inactive) |  |  | 31 µM (inactive) | 11.8 µM (inactive)
10 | Oc1ccccc1/C=C/c1csnn1 | > 100 µM (inactive) | > 100 µM (inactive) | > 100 µM (inactive) | > 100 µM (inactive) | > 100 µM (inactive) | > 100 µM (inactive) | > 69.7 µM (inactive) | > 100 µM (inactive) | > 100 µM (inactive) | > 100 µM (inactive) | > 100 µM (inactive) | > 100 µM (inactive) | 98.4 µM (inactive) | > 100 µM (inactive) | > 100 µM (inactive) | > 100 µM (inactive)
11 | COc1ccc([N+]2=NC(c3ccc([N+](=O)[O-])cc3)=NN(c3ccccc3)C2)cc1.[O-][Cl+3]([O-])([O-])[O-] | > 100 µM (inactive) | 86.5 µM (inactive) | > 100 µM (inactive) | 47.3 µM (inactive) | 10 µM (inactive) |  | 64.6 µM (inactive) | > 100 µM (inactive) | > 100 µM (inactive) | > 100 µM (inactive) | > 100 µM (inactive) | 51.5 µM (inactive) | 65.5 µM (inactive) |  |  | 31.8 µM (inactive)
12 | Cn1ccnc1CCc1c(Cl)cccc1Cl | > 100 µM (inactive) | > 100 µM (inactive) | > 100 µM (inactive) | > 100 µM (inactive) | > 100 µM (inactive) | > 100 µM (inactive) | > 100 µM (inactive) | > 100 µM (inactive) | > 100 µM (inactive) | > 100 µM (inactive) | > 100 µM (inactive) | 71.3 µM (inactive) | > 100 µM (inactive) | > 100 µM (inactive) | 52.1 µM (inactive) | > 100 µM (inactive)
13 | C/C(CC(=O)Nc1ccccc1C)=N/NS(=O)(=O)c1ccc(C)cc1 |  | > 100 µM (inactive) | > 100 µM (inactive) | > 100 µM (inactive) | > 100 µM (inactive) | > 100 µM (inactive) | > 100 µM (inactive) | > 100 µM (inactive) | > 100 µM (inactive) | > 100 µM (inactive) | > 100 µM (inactive) | > 100 µM (inactive) | > 100 µM (inactive) |  | > 100 µM (inactive) | > 100 µM (inactive)
